Measurements taken from patent US20260007599A1, “TICAGRELOR IV FORMULATIONS FOR USE IN THE TREATMENT OF GRAM-POSITIVE BACTEREMIA” (Hyloris Developments SA, priority 2023, published 2026).

What was measured:
[1] = Storage stability of ticagrelor 6 mg/ml in HPβCD 40% w/w, phosphate buffer pH 7.5, 40° C./75% RH; type: physicochemical
Description: A Gradient HPLC method was used to analyze impurities in formulations using a YMC-Pack Pro C18 column (100×4.6 mm, S-3 μm 12 nm). Good separation was obtained for all the impurities. Following the experiment described in example 2, a storage stability study at pH 7.5 was conducted First HPβCD was dissolved in a phosphate buffer solution of pH 7.5 prepared separately in water. […] The solution was filtered through a 0.22 micrometer filter and filled in USP Type I amber colored glass vials. The vials were stoppered and stored. All precautions were taken during manufacturing, such as N2 purging and avoiding direct exposure to light.

[2] = Storage stability of ticagrelor 6 mg/ml in HPβCD 40% w/w at pH 4.5, 5.5, 6.5, 40° C./75% RH, related substances by HPLC; type: physicochemical; settings: for Acetal impurity, average content / Amine impurity, average content / Impurity at relative retention time 1.52, average content / Oxidative impurity 1, average content / Oxidative impurity 2, average content / Regiomer impurity, average content / Sum impurities >0.05 / Total impurities / Triol Impurity, average content: 40° C./75% RH
Description: HPBCD was dissolved in a buffer solution of pH 4.5, 5.5 or 6.5 prepared separately in water. […] The ticagrelor in buffer solution was filtered through a 0.22 micron filtered and filled in USP Type I glass vials. The vials were stoppered and stored. All precautions were taken during manufacturing, such as N2 purging and avoiding direct exposure to light. The vials were stored at 40° C. and 75% Relative Humidity (RH). To determine the stability of the formulations, batches were evaluated using a related substance method on HPLC. A Gradient HPLC method was used to analyze impurities in formulations using a YMC-Pack Pro C18 column (100×4.6 mm, S-3 μm 12 nm). Good separation was obtained for all the impurities.

[3] = 30-42% confidence interval; cited from earlier work
[4] = system: Methicillin resistant Staphylococcus aureus (MRSA); settings: ex-vivo; cited from earlier work
[5] = system: Methicillin sensitive Staphylococcus aureus (MSSA); settings: ex-vivo; cited from earlier work

## CCCSc1nc(N[C@@H]2C[C@H]2c2ccc(F)c(F)c2)c2nnn([C@@H]3C[C@H](OCCO)[C@@H](O)[C@H]3O)c2n1 [ticagrelor, (1S,2S,3R,5S)-3-{7-[(1R,2S)-2-(3,4-difluorophenyl)cyclopropylamino]5-(propylthio)-3H-(1,2,3)triazolo (4,5-D)pyrimidin-3-yl}-5-(2 hydroxyethoxy) cyclopentane-1,2-diol]
[1]; T = 0, 40° C./75% RH
  Acetal impurity: 0.05%
  Amine impurity: 0.04%
  Assay ticagrelor: 104.27%
  Regiomer impurity: 0.00%
  Sum impurities >0.05: 0.11%
  Total impurities: 0.31%
  Triol impurity: 0.04%
[1]; T = 4 weeks, 40° C./75% RH
  Acetal impurity: 0.05%
  Amine impurity: 0.05%
  Assay ticagrelor: 104.47%
  Regiomer impurity: 0.01%
  Sum impurities >0.05: 0.14%
  Total impurities: 0.32%
  Triol impurity: 0.05%
[1]; T = 8 weeks, 40° C./75% RH
  Acetal impurity: 0.05%
  Amine impurity: 0.05%
  Assay ticagrelor: 102.59%
  Regiomer impurity: 0.04%
  Sum impurities >0.05: 0.15%
  Total impurities: 0.29%
  Triol impurity: 0.05%
[1]; T = 12 weeks, 40° C./75% RH
  Acetal impurity: 0.05%
  Amine impurity: 0.05%
  Assay ticagrelor: 102.31%
  Regiomer impurity: 0.08%
  Sum impurities >0.05: 0.23%
  Total impurities: 0.41%
  Triol impurity: 0.04%
[1]; T = 24 Weeks, 40° C./75% RH
  Acetal impurity: 0.05%
  Amine impurity: 0.07%
  Assay ticagrelor: 104.39%
  Regiomer impurity: 0.16%
  Sum impurities >0.05: 0.33%
  Total impurities: 0.35%
  Triol impurity: 0.05%
[1]; accelerated storage conditions of 40° C. and 75% Relative Humidity
  storage stability (conclusion): good storage stability
[2]; 4 weeks 40° C. and 75% RH, specification limit 0.3%
  regiomer impurity level: ~0.3%
[2]; pH 4.5, T = 0
  Acetal impurity, average content: 0.05%
  Amine impurity, average content: 0.05%
  Impurity at relative retention time 1.52, average content: 0.03%
  Oxidative impurity 1, average content: 0.00%
  Oxidative impurity 2, average content: 0.00%
  Regiomer impurity, average content: 0.00%
  Sum impurities >0.05: 0.22%
  Total impurities: 0.36%
  Triol Impurity, average content: 0.05%
[2]; pH 4.5, T = 2 weeks
  Acetal impurity, average content: 0.06%
  Amine impurity, average content: 0.05%
  Impurity at relative retention time 1.52, average content: 0.04%
  Oxidative impurity 1, average content: 0.00%
  Oxidative impurity 2, average content: 0.00%
  Regiomer impurity, average content: 0.00%
  Sum impurities >0.05: 0.23%
  Total impurities: 0.40%
  Triol Impurity, average content: 0.05%
[2]; pH 4.5, T = 4 weeks
  Acetal impurity, average content: 0.05%
  Amine impurity, average content: 0.05%
  Impurity at relative retention time 1.52, average content: 0.03%
  Oxidative impurity 1, average content: 0.01%
  Oxidative impurity 2, average content: 0.02%
  Regiomer impurity, average content: 0.42%
  Sum impurities >0.05: 0.63%
  Total impurities: 0.80%
  Triol Impurity, average content: 0.05%
[2]; pH 5.5, T = 0
  Acetal impurity, average content: 0.05%
  Amine impurity, average content: 0.04%
  Impurity at relative retention time 1.52, average content: 0.02%
  Oxidative impurity 1, average content: 0.00%
  Oxidative impurity 2, average content: 0.00%
  Regiomer impurity, average content: 0.00%
  Sum impurities >0.05: 0.16%
  Total impurities: 0.33%
  Triol Impurity, average content: 0.05%
[2]; pH 5.5, T = 2 weeks
  Acetal impurity, average content: 0.05%
  Amine impurity, average content: 0.05%
  Impurity at relative retention time 1.52, average content: 0.03%
  Oxidative impurity 1, average content: 0.00%
  Oxidative impurity 2, average content: 0.00%
  Regiomer impurity, average content: 0.00%
  Sum impurities >0.05: 0.21%
  Total impurities: 0.36%
  Triol Impurity, average content: 0.05%
[2]; pH 5.5, T = 4 weeks
  Acetal impurity, average content: 0.05%
  Amine impurity, average content: 0.04%
  Impurity at relative retention time 1.52, average content: 0.02%
  Oxidative impurity 1, average content: 0.01%
  Oxidative impurity 2, average content: 0.02%
  Regiomer impurity, average content: 0.30%
  Sum impurities >0.05: 0.45%
  Total impurities: 0.65%
  Triol Impurity, average content: 0.05%
[2]; pH 6.5, T = 0
  Acetal impurity, average content: 0.06%
  Amine impurity, average content: 0.05%
  Impurity at relative retention time 1.52, average content: 0.03%
  Oxidative impurity 1, average content: 0.00%
  Oxidative impurity 2, average content: 0.00%
  Regiomer impurity, average content: 0.00%
  Sum impurities >0.05: 0.22%
  Total impurities: 0.36%
  Triol Impurity, average content: 0.06%
[2]; pH 6.5, T = 2 weeks
  Acetal impurity, average content: 0.06%
  Amine impurity, average content: 0.05%
  Impurity at relative retention time 1.52, average content: 0.04%
  Oxidative impurity 1, average content: 0.00%
  Oxidative impurity 2, average content: 0.00%
  Regiomer impurity, average content: 0.00%
  Sum impurities >0.05: 0.23%
  Total impurities: 0.41%
  Triol Impurity, average content: 0.06%
[2]; pH 6.5, T = 4 weeks
  Acetal impurity, average content: 0.06%
  Amine impurity, average content: 0.05%
  Impurity at relative retention time 1.52, average content: 0.03%
  Oxidative impurity 1, average content: 0.00%
  Oxidative impurity 2, average content: 0.04%
  Regiomer impurity, average content: 0.35%
  Sum impurities >0.05: 0.56%
  Total impurities: 0.72%
  Triol Impurity, average content: 0.05%
[3]
  Oral bioavailability: 36%
[4]
  minimal bactericidal concentration: 20 microgram/ml
[5]
  minimal bactericidal concentration: 20 microgram/ml
